{"source": "patent US11859212B2", "about": "“Method for producing intestinal organoid derived from pluripotent stem cells” (PUBLIC UNIVERSITY CORPORATION NAGOYA CITY UNIVERSITY, priority 2017, dated 2024)", "key": {"ABCG2/BCRP": {"target": "T1, ABCG2/BCRP (Homo sapiens, UniProt Q9UNQ0)", "T1 sequence (Q9UNQ0 1-655)": "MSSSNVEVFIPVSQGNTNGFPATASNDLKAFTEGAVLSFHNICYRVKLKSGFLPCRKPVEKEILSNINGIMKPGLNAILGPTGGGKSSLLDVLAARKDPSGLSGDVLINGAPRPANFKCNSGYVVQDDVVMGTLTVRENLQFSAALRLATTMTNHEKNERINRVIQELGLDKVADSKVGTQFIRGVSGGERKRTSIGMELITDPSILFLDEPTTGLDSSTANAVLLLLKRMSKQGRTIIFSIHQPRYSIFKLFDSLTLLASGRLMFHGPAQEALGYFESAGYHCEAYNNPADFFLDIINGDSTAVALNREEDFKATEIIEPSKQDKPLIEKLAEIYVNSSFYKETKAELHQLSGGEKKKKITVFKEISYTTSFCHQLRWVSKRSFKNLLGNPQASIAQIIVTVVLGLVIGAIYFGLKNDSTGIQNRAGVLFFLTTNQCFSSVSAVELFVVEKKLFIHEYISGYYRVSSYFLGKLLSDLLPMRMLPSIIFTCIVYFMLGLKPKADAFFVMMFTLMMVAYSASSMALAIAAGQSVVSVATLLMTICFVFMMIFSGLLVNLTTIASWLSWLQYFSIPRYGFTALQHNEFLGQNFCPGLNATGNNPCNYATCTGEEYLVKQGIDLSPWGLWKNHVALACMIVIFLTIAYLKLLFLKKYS", "assay": "Hoechst 33342 transport experiment, human intestinal organoids obtained with polysaccharide polymers", "format": "in vitro ADME"}, "CYP3A4 [1]": {"test_system": "CYP3A4", "assay": "CYP3A4 induction ability of human intestinal organoids obtained with polysaccharide polymers (mRNA and midazolam metabolic activity)", "conditions": "VD3 1 μmol/L, 72 hours"}, "CYP3A4 [2]": {"test_system": "CYP3A4"}, "CYP3A8 [3]": {"test_system": "CYP3A8"}, "CYP3A4 [4]": {"test_system": "CYP3A4", "assay": "Drug metabolism experiment with midazolam, CYP3A4 metabolic activity of human intestinal organoids obtained with polysaccharide polymers", "conditions": "5 μmol/L midazolam"}, "CYP3A8 [5]": {"test_system": "CYP3A8", "assay": "Drug metabolism experiment with midazolam, CYP3A8 metabolic activity of cynomolgus monkey intestinal organoids", "conditions": "5 μmol/L midazolam, 37° C., 24 hours"}, "ABCB1/MDR1 [6]": {"target": "T2, ABCB1/MDR1 (Homo sapiens, UniProt P08183)", "T2 sequence (P08183 whole entry)": "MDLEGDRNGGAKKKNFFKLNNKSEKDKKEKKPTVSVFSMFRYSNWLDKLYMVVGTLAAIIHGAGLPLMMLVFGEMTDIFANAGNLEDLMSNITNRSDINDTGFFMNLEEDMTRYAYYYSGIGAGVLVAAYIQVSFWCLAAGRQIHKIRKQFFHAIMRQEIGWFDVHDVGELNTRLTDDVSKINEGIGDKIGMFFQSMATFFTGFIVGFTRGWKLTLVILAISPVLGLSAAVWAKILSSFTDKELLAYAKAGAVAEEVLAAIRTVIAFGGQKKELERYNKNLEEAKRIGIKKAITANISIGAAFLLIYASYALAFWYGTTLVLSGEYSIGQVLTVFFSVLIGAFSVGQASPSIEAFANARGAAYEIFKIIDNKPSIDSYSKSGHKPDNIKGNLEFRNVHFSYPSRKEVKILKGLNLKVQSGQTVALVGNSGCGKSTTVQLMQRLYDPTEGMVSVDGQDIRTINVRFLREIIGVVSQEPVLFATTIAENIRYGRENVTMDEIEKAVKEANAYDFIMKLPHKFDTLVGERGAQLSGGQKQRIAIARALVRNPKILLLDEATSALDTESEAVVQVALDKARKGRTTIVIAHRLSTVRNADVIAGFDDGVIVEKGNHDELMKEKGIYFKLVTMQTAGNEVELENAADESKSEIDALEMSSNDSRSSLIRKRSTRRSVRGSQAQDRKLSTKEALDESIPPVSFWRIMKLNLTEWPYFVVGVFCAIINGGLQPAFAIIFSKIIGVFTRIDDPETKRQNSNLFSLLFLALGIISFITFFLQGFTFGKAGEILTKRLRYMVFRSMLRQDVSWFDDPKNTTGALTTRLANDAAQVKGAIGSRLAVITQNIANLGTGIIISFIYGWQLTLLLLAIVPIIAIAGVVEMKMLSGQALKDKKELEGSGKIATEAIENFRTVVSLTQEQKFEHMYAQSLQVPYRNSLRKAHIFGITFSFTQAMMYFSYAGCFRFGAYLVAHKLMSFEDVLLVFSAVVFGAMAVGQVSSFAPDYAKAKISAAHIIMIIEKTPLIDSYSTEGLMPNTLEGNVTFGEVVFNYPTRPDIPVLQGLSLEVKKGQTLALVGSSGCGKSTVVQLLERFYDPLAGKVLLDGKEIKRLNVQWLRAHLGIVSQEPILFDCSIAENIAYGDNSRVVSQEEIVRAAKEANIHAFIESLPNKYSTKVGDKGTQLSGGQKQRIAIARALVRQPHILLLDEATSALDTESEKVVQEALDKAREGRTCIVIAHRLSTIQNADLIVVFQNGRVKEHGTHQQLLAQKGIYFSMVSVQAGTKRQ", "assay": "Rhodamine 123 uptake experiment, function of ABCB1/MDR1 in human intestinal organoids (fluorescence observation)", "format": "in vitro ADME", "conditions": "rhodamine 123 10 μmol/L, 37° C., 1 hour, absence of verapamil"}, "ABCB1/MDR1 [7]": {"target": "T2, ABCB1/MDR1", "assay": "Rhodamine 123 transport experiment, human intestinal organoids obtained with polysaccharide polymers", "format": "in vitro ADME"}}, "note": "Like-named read-outs stand apart in the source and are kept apart here.", "data": [{"compound": "CCOc1ccc(-c2nc3ccc(-c4nc5ccc(N6CCN(C)CC6)cc5[nH]4)cc3[nH]2)cc1", "note": "[Hoechst 33342]", "values": [{"measurement": "excretion of Hoechst 33342 into the intestinal organoids", "setting": "ABCG2/BCRP", "result": "observed"}]}, {"compound": "C=C1/C(=C\\C=C2/CCC[C@]3(C)[C@@H]([C@H](C)CCCC(C)(C)O)CC[C@@H]23)C[C@@H](O)C[C@@H]1O", "note": "[VD3, 1α, 25-dihydroxyvitamin D3]", "values": [{"measurement": "midazolam metabolic activity in the inducer-added group", "setting": "CYP3A4 [1]; 5 μmol/L midazolam", "result": "significantly increased"}, {"measurement": "induction of mRNA expression of CYP3A4 as compared with the control group", "setting": "CYP3A4 [1]; organoids obtained with polysaccharide polymers", "result": "significantly induced"}, {"measurement": "induction of mRNA expression of CYP3A4 as compared with the control group", "setting": "CYP3A4 [2]", "result": "approximately 4.5 times"}, {"measurement": "induction of mRNA expression of CYP3A8 as compared with the control group", "setting": "CYP3A8 [3]", "result": "no induction"}]}, {"compound": "CC(=O)N1CCN(c2ccc(OCC3COC(Cn4ccnc4)(c4ccc(Cl)cc4Cl)O3)cc2)CC1", "note": "(stereo not shown) [ketoconazole]", "values": [{"measurement": "effect of inhibitor on midazolam metabolic activity", "setting": "CYP3A4 [4]", "result": "significantly inhibited"}]}, {"compound": "Cc1ncc2n1-c1ccc(Cl)cc1C(c1ccccc1F)=NC2", "note": "[midazolam]", "values": [{"measurement": "midazolam metabolic activity", "setting": "CYP3A8 [5]", "result": "observed"}, {"measurement": "midazolam metabolic activity", "setting": "CYP3A4 [4]; 37° C., 24 hours", "result": "observed"}]}, {"compound": "rhodamine 123", "values": [{"measurement": "excretion of rhodamine 123 into the intestinal organoids", "setting": "ABCB1/MDR1 [6]", "result": "observed"}, {"measurement": "excretion of rhodamine 123 into the intestinal organoids", "setting": "ABCB1/MDR1 [7]", "result": "observed"}]}]}
